Values of other authors in patent publication US7358226B2, “Ultrasonic concentration of drug delivery capsules” (The Regents of the University of California, priority 2003, dated 2008).
Values belong to the compound of their own block, whether it stands above or below them.

Key:
P-gp = biological target: T1, P-gp (Mus musculus, UniProt P21447)
T1 construct: host or cells: mouse brain in vivo (endogenous protein)

P-glycoprotein = biological target: T2, P-glycoprotein (Mus musculus, UniProt P21447)
T2 construct: host or cells: mouse brain in vivo (endogenous protein)
T2 sequence (P21447 whole entry): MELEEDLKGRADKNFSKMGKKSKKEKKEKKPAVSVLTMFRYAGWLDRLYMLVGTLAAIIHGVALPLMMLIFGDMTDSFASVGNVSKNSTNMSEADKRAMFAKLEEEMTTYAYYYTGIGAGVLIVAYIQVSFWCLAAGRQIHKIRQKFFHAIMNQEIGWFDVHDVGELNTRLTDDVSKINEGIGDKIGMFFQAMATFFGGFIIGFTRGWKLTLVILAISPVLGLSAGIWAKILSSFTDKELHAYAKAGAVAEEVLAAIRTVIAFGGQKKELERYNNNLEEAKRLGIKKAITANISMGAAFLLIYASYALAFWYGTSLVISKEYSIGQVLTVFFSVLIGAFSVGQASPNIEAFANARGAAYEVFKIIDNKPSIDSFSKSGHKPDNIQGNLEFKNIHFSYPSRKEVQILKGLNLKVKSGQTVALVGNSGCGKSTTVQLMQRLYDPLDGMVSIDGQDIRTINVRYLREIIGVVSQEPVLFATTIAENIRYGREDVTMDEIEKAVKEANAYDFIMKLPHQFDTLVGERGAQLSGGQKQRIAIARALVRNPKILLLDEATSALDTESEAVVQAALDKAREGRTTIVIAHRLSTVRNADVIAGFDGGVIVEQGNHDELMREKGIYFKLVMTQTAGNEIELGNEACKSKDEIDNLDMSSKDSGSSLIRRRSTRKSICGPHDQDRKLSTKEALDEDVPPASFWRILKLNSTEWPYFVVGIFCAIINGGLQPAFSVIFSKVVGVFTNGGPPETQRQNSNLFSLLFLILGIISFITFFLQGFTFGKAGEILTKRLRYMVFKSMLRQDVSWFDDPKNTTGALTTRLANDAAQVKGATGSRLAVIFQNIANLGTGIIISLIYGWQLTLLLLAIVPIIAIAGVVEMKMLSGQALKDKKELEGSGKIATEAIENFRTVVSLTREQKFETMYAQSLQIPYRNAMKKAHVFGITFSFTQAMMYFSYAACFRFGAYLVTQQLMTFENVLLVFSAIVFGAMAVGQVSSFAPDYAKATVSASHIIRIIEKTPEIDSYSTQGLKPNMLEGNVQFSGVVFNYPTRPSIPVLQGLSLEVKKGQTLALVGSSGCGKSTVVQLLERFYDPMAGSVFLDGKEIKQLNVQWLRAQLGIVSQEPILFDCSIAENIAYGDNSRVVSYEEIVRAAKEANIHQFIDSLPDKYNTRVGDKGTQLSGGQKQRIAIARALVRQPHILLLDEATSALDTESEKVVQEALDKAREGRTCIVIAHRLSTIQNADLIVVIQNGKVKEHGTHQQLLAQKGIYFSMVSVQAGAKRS

tumor = conditions: paclitaxel alone

T1 sequence (P21447 whole entry): as above

SMILES: CC(=O)O[C@H]1C(=O)[C@@]2(C)[C@H]([C@H](OC(=O)c3ccccc3)[C@]3(O)C[C@H](OC(=O)[C@H](O)[C@@H](NC(=O)c4ccc([18F])cc4)c4ccccc4)C(C)=C1C3(C)C)[C@]1(OC(C)=O)CO[C@@H]1C[C@@H]2O [F18-fluoropaclitaxel]
increase of F18-fluoropaclitaxel uptake in the brain (P-gp; P-gp knockout mice relative to wildtype controls): 1400%
clearance (P-gp; mouse, in vivo): rapid clearance
tissue uptake (P-gp; mouse, in vivo): high uptake in many tissues

brain concentrations of paclitaxel (P-glycoprotein; Valspodar co-administered with paclitaxel): significantly increase
SMILES: C/C=C/C[C@@H](C)C(=O)[C@H]1C(=O)N[C@@H](C(C)C)C(=O)N(C)CC(=O)N(C)[C@@H](CC(C)C)C(=O)N[C@@H](C(C)C)C(=O)N(C)[C@@H](CC(C)C)C(=O)N[C@@H](C)C(=O)N[C@H](C)C(=O)N(C)[C@@H](CC(C)C)C(=O)N(C)[C@@H](CC(C)C)C(=O)N(C)[C@@H](C(C)C)C(=O)N1C [Valspodar]

penetration of paclitaxel into the brain (P-glycoprotein; P-glycoprotein knockout mice): markedly increased
SMILES: CC(=O)O[C@H]1C(=O)[C@@]2(C)[C@H]([C@H](OC(=O)c3ccccc3)[C@]3(O)C[C@H](OC(=O)[C@H](O)[C@@H](NC(=O)c4ccccc4)c4ccccc4)C(C)=C1C3(C)C)[C@]1(OC(C)=O)CO[C@@H]1C[C@@H]2O [paclitaxel, Paclitaxel]
effect on tumor volume (tumor): did not affect tumor volume

increase of uptake of F18-fluoropaclitaxel (P-gp; preadministration of XR9576, increase was not significant): 20%
SMILES: COc1cc2c(cc1OC)CN(CCc1ccc(NC(=O)c3cc(OC)c(OC)cc3NC(=O)c3cnc4ccccc4c3)cc1)CC2 [XR9576]
